Data published in patent publication US8697725B2, “Tetrahydroquinoline derivatives and their pharmaceutical use” (GlaxoSmithKline LLC, priority 2009, dated 2014).
Where a name gives a salt, the structure may show the parent alone.

Assays:
TNFα = assay: LPS Stimulated Whole Blood Measuring TNFα Levels Assay; assay type: cell-based; settings: 24 h, LPS 200 ng/ml, immunoassay, read-out: pIC50, TNFα levels in LPS stimulated whole blood (converted)
Method: LPS Stimulated Whole Blood Measuring TNFα Levels Assay
(§1) Activation of monocytic cells by agonists of toll-like receptors such as bacterial lipopolysaccharide (LPS) results in production of key inflammatory mediators including TNFα. Such pathways are widely considered to be central to the pathophysiology of a range of auto-immune and inflammatory disorders.
Compounds to be tested are diluted to give a range of appropriate concentrations and 1 ul of the dilution stocks is added to wells of a 96 plate. Following addition of whole blood (130 ul) the plates are incubated at 37 degrees (5% CO2) for 30 min before the addition of 10 ul of 2.8 ug/ml lipopolysaccharides (LPS), diluted in complete RPMI 1640 (final concentration=200 ng/ml), to give a total volume of 140 ul per well. After further incubation for 24 hours at 37 degrees, 140 ul of PBS are added to each well. The plates are sealed, shaken for 10 minutes and then centrifuged (2500 rpm×10 min). 100 ul of the supernatant are removed and TNFα levels assayed by immunoassay (typically by MesoScale Discovery technology) either immediately or following storage at −20 degrees. Dose response curves for each compound was generated from the data and an IC50 value was calculated.

IL-6 = assay: Measurement of LPS Induced IL-6 Secretion from Whole Blood; assay type: cell-based; settings: 24 h, LPS 200 ng/ml, immunoassay, read-out: pIC50, LPS induced IL-6 secretion from whole blood (converted)
Method: Measurement of LPS Induced IL-6 Secretion from Whole Blood
as §1, with “IL-6.” for “TNFα.”
Compounds to be tested are diluted to give a range of appropriate concentrations of which 1 ul of the diluted stocks is added to a 96 well plate. Following addition of whole blood (130 ul) the plates are incubated at 37 degrees (5% CO2) for 30 min before the addition of 10 ul of 2.8 ug/ml LPS, diluted in complete RPMI 1640 (final concentration=200 ng/ml), to give a total volume of 140 ul per well. After further incubation for 24 hours at 37 degrees, 140 ul of PBS are added to each well. The plates are sealed, shaken for 10 minutes and then centrifuged (2500 rpm×10 min). 100 ul of the supernatant are removed and IL-6 levels assayed by immunoassay (typically by MesoScale Discovery technology) either immediately or following storage at −20 degrees. Concentration response curves for each compound was generated from the data and an IC50 value was calculated.

| Compound | IC50 (TNFα) [µM] | IC50 (IL-6) [µM] |
| --- | --- | --- |
| CC(=O)N1c2ccc(-c3cnn(CCN4CCC(N)CC4)c3)cc2[C@@H](NC(=O)OC(C)C)C[C@H]1C (racemic) [Example 39, 1-methylethyl((cis)-1-acetyl-6-{1-[2-(4-amino-1-piperidinyl)ethyl]-1H-pyrazol-4-yl}-2-methyl-1,2,3,4-tetrahydro-4-quinolinyl)carbamate dihydrochloride] | ≤ 6.31 |  |
| CNc1ccc(-c2ccc3c(c2)[C@@H](NC(=O)OC(C)C)C[C@@H](C)N3C(C)=O)cn1 (racemic) [Example 53, 1-methylethyl {(cis)-1-acetyl-2-methyl-6-[6-(methylamino)-3-pyridinyl]-1,2,3,4-tetrahydro-4-quinolinyl}carbamate hydrochloride] | ≤ 6.31 |  |
| CC(=O)N1c2ccc(-c3ccc(N(C)C)nc3)cc2[C@@H](NC(=O)OC(C)C)C[C@H]1C (racemic) [Example 48, 1-methylethyl {(cis)-1-acetyl-6-[6-(dimethylamino)-3-pyridinyl]-2-methyl-1,2,3,4-tetrahydro-4-quinolinyl}carbamate hydrochloride] | ≤ 6.31 |  |
| CC(=O)N1c2ccc(-c3cnc(N)nc3)cc2[C@@H](NC(=O)OC(C)C)C[C@H]1C (racemic) [Example 50, 1-methylethyl[(cis)-1-acetyl-6-(2-amino-5-pyrimidinyl)-2-methyl-1,2,3,4-tetrahydro-4-quinolinyl]carbamate hydrochloride] | ≤ 6.31 |  |
| CC(=O)N1c2ccc(Br)cc2[C@@H](NC(=O)OC2CCC2)C[C@H]1C (racemic) [Example 33, cyclobutyl[(cis)-1-acetyl-6-bromo-2-methyl-1,2,3,4-tetrahydro-4-quinolinyl]carbamate] | ≤ 6.31 |  |
| CC(=O)N1c2ccc(-c3cnc(N4CCNCC4)nc3)cc2[C@@H](NC(=O)OC(C)C)C[C@H]1C (racemic) [Example 44, 1-methylethyl {(cis)-1-acetyl-2-methyl-6-[2-(1-piperazinyl)-5-pyrimidinyl]-1,2,3,4-tetrahydro-4-quinolinyl}carbamate hydrochloride] | ≤ 6.31 |  |
| CC(=O)N1c2ccc(-c3cnc(N4CCNCC4)cn3)cc2[C@@H](NC(=O)OC(C)C)C[C@H]1C (racemic) [Example 43, 1-methylethyl {(cis)-1-acetyl-2-methyl-6-[5-(1-piperazinyl)-2-pyrazinyl]-1,2,3,4-tetrahydro-4-quinolinyl}carbamate hydrochloride] | ≤ 6.31 |  |
| CNCc1cccc(-c2ccc3c(c2)[C@H](NC(=O)OC(C)C)C[C@H](C)N3C(C)=O)c1 [Example 111, 1-Methylethyl((2S,4R)-1-acetyl-2-methyl-6-{3-[(methylamino)methyl]phenyl}-1,2,3,4-tetrahydro-4-quinolinyl)carbamate hydrochloride] | ≤ 6.31 |  |
| CC(=O)N1c2ccc(-c3csc(CN4CCCCC4)n3)cc2[C@@H](NC(=O)OC(C)C)C[C@H]1C (racemic) [Example 41, 1-methylethyl {(cis)-1-acetyl-2-methyl-6-[2-(1-piperidinylmethyl)-1,3-thiazol-4-yl]-1,2,3,4-tetrahydro-4-quinolinyl}carbamate] | ≤ 6.31 |  |
| CC(=O)N1c2ccc(-c3ccc(CN4CCCCC4)o3)cc2[C@@H](NC(=O)OC(C)C)C[C@H]1C (racemic) [Example 22, 1-methylethyl {(cis)-1-acetyl-2-methyl-6-[5-(1-piperidinylmethyl)-2-furanyl]-1,2,3,4-tetrahydro-4-quinolinyl}carbamate (formic acid salt)] | ≤ 6.31 |  |
| CC(=O)N1c2ccc(-c3ccc(CO)cc3)cc2[C@H](NC(=O)OC(C)C)C[C@@H]1C (relative stereo) [Example 15, 1-methylethyl {(cis)-1-acetyl-6-[4-(hydroxymethyl)phenyl]-2-methyl-1,2,3,4-tetrahydro-4-quinolinyl}carbamate] | ≤ 6.31 |  |
| CC(=O)N1c2ccc(Br)cc2[C@H](NC(=O)OC(C)C)C[C@@H]1C [Example 4, 1-methylethyl[(2S,4R)-1-acetyl-6-bromo-2-methyl-1,2,3,4-tetrahydro-4-quinolinyl]carbamate] | ≤ 6.31 |  |
| CC(=O)N1c2ccc(-c3ccc(N4CCOCC4)nc3)cc2[C@@H](NC(=O)OC(C)C)C[C@H]1C (racemic) [Example 10, 1-methylethyl {(cis)-1-acetyl-2-methyl-6-[6-(4-morpholinyl)-3-pyridinyl]-1,2,3,4-tetrahydro-4-quinolinyl}carbamate hydrochloride] | ≤ 6.31 |  |
| CC(=O)N1c2ccc(-c3ccc(CN4CCCCC4)cc3)cc2[C@@H](NC(=O)OC2CCCC2)C[C@H]1C (racemic) [Example 36, cyclopentyl {(cis)-1-acetyl-2-methyl-6-[4-(1-piperidinylmethyl)phenyl]-1,2,3,4-tetrahydro-4-quinolinyl}carbamate] | ≤ 6.31 |  |
| CC(=O)N1c2ccc(-c3sc(C)nc3C)cc2[C@@H](NC(=O)OC(C)C)C[C@H]1C (racemic) [Example 32, 1-methylethyl[(cis)-1-acetyl-6-(2,4-dimethyl-1,3-thiazol-5-yl)-2-methyl-1,2,3,4-tetrahydro-4-quinolinyl]carbamate] | ≤ 6.31 |  |
| CC(=O)N1c2ccc(-c3cn(CCCN)nn3)cc2[C@H](NC(=O)OC(C)C)C[C@@H]1C [Example 74, 1-Methylethyl {(2S,4R)-1-acetyl-6-[1-(3-aminopropyl)-1H-1,2,3-triazol-4-yl]-2-methyl-1,2,3,4-tetrahydro-4-quinolinyl}carbamate hydrochloride] |  | ≤ 31.6 |
| CC(=O)N1c2ccc(-c3ncc[nH]3)cc2[C@H](NC(=O)OC(C)C)C[C@@H]1C [Example 86, 1-Methylethyl[(2S,4R)-1-acetyl-6-(1H-imidazol-2-yl)-2-methyl-1,2,3,4-tetrahydro-4-quinolinyl]carbamate] |  | ≤ 31.6 |
| CC(=O)N1c2ccc(-c3nc(CCN)no3)cc2[C@H](NC(=O)OC(C)C)C[C@@H]1C [Example 70, 1-Methylethyl {(2S,4R)-1-acetyl-6-[3-(2-aminoethyl)-1,2,4-oxadiazol-5-yl]-2-methyl-1,2,3,4-tetrahydro-4-quinolinyl}carbamate hydrochloride] |  | ≤ 31.6 |
| CC(=O)N1c2ccc(-c3cn(CC(=O)O)nn3)cc2[C@H](NC(=O)OC(C)C)C[C@@H]1C [Example 76, {4-[(2S,4R)-1-Acetyl-2-methyl-4-({[(1-methylethyl)oxy]carbonyl}amino)-1,2,3,4-tetrahydro-6-quinolinyl]-1H-1,2,3-triazol-1-yl}acetic acid] |  | ≤ 31.6 |
| CC(=O)N1c2ccc(-c3ccc(N)nc3)cc2[C@H](NC(=O)OC(C)C)C[C@@H]1C [Example 110, 1-methylethyl[(2S,4R)-1-acetyl-6-(6-amino-3-pyridinyl)-2-methyl-1,2,3,4-tetrahydro-4-quinolinyl]carbamate] |  | ≤ 31.6 |
| CC(=O)N1c2ccc(-n3cnc(C)c3)cc2[C@H](NC(=O)OC(C)C)C[C@@H]1C [Example 84, 1-Methylethyl[(2S,4R)-1-acetyl-2-methyl-6-(4-methyl-1H-imidazol-1-yl)-1,2,3,4-tetrahydro-4-quinolinyl]carbamate] |  | ≤ 31.6 |
| CC(=O)N1c2ccc(-c3noc(CN)n3)cc2[C@H](NC(=O)OC(C)C)C[C@@H]1C [Example 66, 1-Methylethyl {(2S,4R)-1-acetyl-6-[5-(aminomethyl)-1,2,4-oxadiazol-3-yl]-2-methyl-1,2,3,4-tetrahydro-4-quinolinyl}carbamate hydrochloride] |  | ≤ 31.6 |
